The subject of assay [1] is Escherichia coli. The assay is described as follows: Tested for the percent inhibition against N-acetyl-L-phenylalanyl tRNA-70S Escherichia coli ribosome poly-U complex at 3.8*10e-4M concentration. Format: functional.
For assay [2], the system named is Escherichia coli. The assay is described as follows: Tested for the inhibitory activity against N-acetyl-L-phenylalanyl tRNA-70S Escherichia coli ribosome poly-U complex. The assay is classed as functional, organism-based.

The term Inhibition denotes the drop in the measured response relative to a control, in per cent. Lower therefore signals a weak effect. As a reminder, the Ki is a dissociation constant, usually derived from enzyme kinetics or from competition with a known ligand. The low end stands for tighter binding, the high end for weaker binding.

Take `Cc1nc(O)nc(O)c1/C=C/C(=O)ON1C(=O)CCCC1=O`: in the assay with Escherichia coli [1], the Inhibition worked out at 20%.
For the compound `Cc1nc(O)nc(O)c1/C=C/C(=O)N(C)C`, the Ki with Escherichia coli [2] stood at 350 µM.
Same read-out and setting: for `Cc1nc(O)nc(O)c1/C=C/C(=O)NC(CO)C(O)c1ccc([N+](=O)[O-])cc1` (centres undefined) the value was 3 µM.
In the assay with Escherichia coli [2], `COc1ccc(C[C@H](N)C(=O)N[C@H]2[C@@H](O)[C@H](n3cnc4c(N(C)C)ncnc43)O[C@@H]2CO)cc1` [PUROMYCIN] registered a Ki of 220 µM.
